Data as given in patent publication US12527870B2, “Peptide hydrogels for delivery of immunosuppressive drugs and uses thereof” (THE JOHNS HOPKINS UNIVERSITY, priority 2018, dated 2026).
Counter-ions that a name gives are not always drawn.

How the values were obtained:
Assay type in all cases: physicochemical
[1] = Crystallization of drug within peptide hydrogel (phase-contrast, confocal, polarized light microscopy)
Protocol: During hydrogel-mediated encapsulation, when used at a loading concentration of 16 mM, tofacitinib free base initially produced an opaque suspension that turned into a transparent hydrogel as the drug dissolved in the self-assembled peptide matrix at 37° C. during the first 2-3 hours. […] Approximately 10 μL of the hydrogel was then placed on a glass slide and covered with a cover slip. Phase-contrast microscopy (EVOS FL Cell Imaging System) and confocal microscopy (LSM 710) were used to characterize the drug aggregates suspended in the hydrogel matrix. Crystallinity of the aggregates was verified from polarized light microscopy at low and high magnification.
Shown in FIGS. 2A-2C are phase contrast images of tofacitinib free base encapsulated within MAX8 peptide hydrogel at the drug concentrations of 16 mM (FIG. 2A), 1.6 mM (FIG. 2B) and blank MAX8 peptide hydrogel (FIG. 2C). Shown in FIGS. 2D-2E are confocal microscopy-generated differential interference contrast images of tofacitinib free base microcrystals dispersed in MAX8 peptide gel network at a drug concentration of 16 mM.

[2] = Ex vivo drug release from peptide hydrogel into buffer
From the text: FIGS. 1A-1D: Release profiles of tofacitinib from peptide hydrogels. (FIG. 1A) Sustained release profile of tofacitinib free base vs burst release of tofacitinib citrate salt from MAX8 peptide hydrogel at early time points. (FIG. 1B) Release profiles of tofacitinib free base and citrate at longer time duration. (FIG. 1C) Variation of release profiles of tofacitinib free base based on the initial amount of drug loading. (FIG. 1D) Release profiles of tofacitinib free base from MAX1 and HLT2 peptide hydrogels. Concentration of tofacitinib free base was 16 mM. In each case, release of the drug was monitored from the hydrogel into an infinite sink (25 mM HEPES, 150 mM NaCl, pH 7.4) at 37° C. Lines are included for visual guidance.
A MAX8 peptide stock solution was prepared in glass vials by dissolving 1 mg of peptide in 50 μL of chilled sterile water. Tofacitinib free base and tofacitinib citrate (purchased from LC Laboratories, Woburn, MA) stock solutions were prepared in spectrophotometric grade DMSO with final concentrations of 100 μg/μL and 160 μg/μL, respectively. Concentration of the stock solution was determined in such a way that would maintain equal ratio of DMSO to HEPES buffered saline (HBS) (v/v) while loading equimolar concentration of tofacitinib free base and citrate into the hydrogel. Required volume of drug stock solution was added into a chilled solution of HBS (2X HBS, 50 mM HEPES, 300 mM NaCl, pH 7.4) to make the final volume as 50 μL. At this point, care was taken to avoid mixing before the peptide stock solution had been transferred to the resulting suspension. Peptide solution was added and samples were then mixed to initiate hydrogelation, resulting in a 1.0 wt % gel of a final total volume of 100 μL containing required amount of loaded drug. Tofacitinib free base was loaded to the final concentrations of 1.6, 3.2 and 16 mM. For tofacitinib citrate salt, only hydrogels with a final concentration of 16 mM loaded drug were considered for drug release studies. Samples were placed in an incubator at 37° C. for 24 hours. After 24 hours, 1 mL of 1X HBS (25 mM HEPES, 150 mM NaCl, pH 7.4) was added to the top of gel. At scheduled time points, the entire volume of buffer above the gel was removed and replaced with fresh buffer. Drug concentration was determined for each removed aliquot as a function of time by measuring absorbance at 290 nm in a UV-VIS spectrophotometer (Agilent 8453) with a standard curve constructed under similar conditions.

[3] = Release profile from MAX8 hydrogel with varying DMSO volume ratio; details: 16 mM, DMSO 2-30% by volume
Protocol: FIGS. 6A-6B: Release profile of tofacitinib from MAX8 hydrogel. (FIG. 6A) Cumulative release profiles of tofacitinib (free base) from MAX8 hydrogel containing different volume ratios of DMSO versus hydrogel. In each case, the tofacitinib stock solution was prepared in DMSO and an increasing volume of the DMSO stock was added while constituting the hydrogel. The total concentration of loaded tofacitinib was constant at 16 mM. Release profile of the drug was monitored from the hydrogel into buffer (25 mM HEPES, 150 mM NaCl, pH 7.4) at 37° C. (FIG. 6B) Release rate of tofacitinib from MAX8 hydrogel containing varying volumes of DMSO during the first 4 hours.
In each case, the tofacitinib stock solution was prepared in DMSO and an increasing volume of the DMSO stock was added while constituting the hydrogel. The total concentration of loaded tofacitinib was constant at 16 mM. The release profile of the drug was monitored from the hydrogel into buffer (25 mM HEPES, 150 mM NaCl, pH 7.4) at 37° C.

[4] = MAX8 hydrogel, 16 mM loading, 37° C.
[5] = MAX8 hydrogel, 16 mM loading, HBS pH 7.4, 37° C.

SMILES	crystallization within MAX8 hydrogel [1, 4]	release profile from MAX8 hydrogel, free base vs citrate [2, 5]	effect of decreasing the DMSO concentration on solubility [3]	crystallization within HLT2 hydrogel ([1]; HLT2 hydrogel, 16 mM loading)	crystallization within MAX1 hydrogel ([1]; MAX1 hydrogel, 16 mM loading)	loading concentration needed for crystallization ([1]; MAX8 hydrogel)	time of in situ crystallization after dissolution ([1]; MAX8 hydrogel, 16 mM, 37° C., after the first 2-3 hours) [h]	crystallization within MAX8 hydrogel below 16 mM ([1]; MAX8 hydrogel, loading concentration below 16 mM)	period to show similar cumulative release (over 75%) ([2]; MAX8 hydrogel, 16 mM loading, crystallized state, HBS pH 7.4, 37° C.) [days]	release profile at lower loading compared to 16 mM ([2]; MAX8 hydrogel, 0.48, 1.6 and 3.2 mM loading)	drug released within the first 10 hours ([2]; MAX8 hydrogel, loading 0.48 to 3.2 mM, soluble (not crystallized) drug, into 25 mM HEPES, 150 mM NaCl, pH 7.4, 37° C.)
C[C@@H]1CCN(C(=O)CC#N)C[C@@H]1N(C)c1ncnc2[nH]ccc12 [tofacitinib citrate]	did not crystallize	released faster	–	–	–	–	–	–	–	–	–
C[C@@H]1CCN(C(=O)CC#N)C[C@@H]1N(C)c1ncnc2[nH]ccc12 [tofacitinib free base, 3-((3R,4R)-4-methyl-3-(methyl (7H-pyrrolo[2,3-d]pyrimidin-4-yl)amino)piperidin-1-yl)-3-oxopropanenitrile]	gradually crystallized in situ	slower, more sustained release	reduces the solubility	crystallized	crystallized	above 3.2 mM	~20	no visible indication of crystallization	6	more rapid release	over 75%
